Laboratory results as given in PMC8185074, “Anchor extension: a structure-guided approach to design cyclic peptides targeting enzyme active sites” (Nature Communications, 2021).
Peptide text beside a SMILES is read from it.

Key:
Format in all cases: biochemical
HDAC3 = target: T1, HDAC3 (Homo sapiens, UniProt O15379); experiment: HDAC3 inhibition, full IC50 measurement (Reaction Biology; fluorogenic p53 peptide RHKK(Ac)AMC)
T1 construct: purchased Reaction Biology Corporation (assay run by the CRO)
How it was run: (§1)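 The reaction was a 1 h, 30 °C incubation of enzyme, acoustically added peptide and 50 μM p53-derived AMC substrate in pH 8.0 Tris buffer with NaCl, KCl, MgCl2, 1 mg/ml BSA and 1% DMSO. Duplicate values were averaged.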

HDAC8 = target: T2, HDAC8 (Homo sapiens, UniProt Q9BY41); experiment: HDAC8 inhibition, full IC50 measurement (Reaction Biology; fluorogenic p53 peptide RHKK(Ac)AMC); conditions: t1/t2 replicates
T2 construct: purchased Reaction Biology Corporation (assay run by the CRO)
T2 sequence (Q9BY41 1-377): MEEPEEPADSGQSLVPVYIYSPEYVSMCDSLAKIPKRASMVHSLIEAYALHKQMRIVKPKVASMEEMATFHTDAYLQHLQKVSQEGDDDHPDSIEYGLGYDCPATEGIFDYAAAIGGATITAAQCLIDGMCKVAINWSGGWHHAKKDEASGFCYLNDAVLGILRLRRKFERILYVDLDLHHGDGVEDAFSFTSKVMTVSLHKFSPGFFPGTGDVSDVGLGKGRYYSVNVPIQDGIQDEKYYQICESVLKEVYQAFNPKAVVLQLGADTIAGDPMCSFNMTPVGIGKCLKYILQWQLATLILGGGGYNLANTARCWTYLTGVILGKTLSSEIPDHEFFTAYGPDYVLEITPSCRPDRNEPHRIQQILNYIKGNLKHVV
How it was run: as §1

HDAC6 = target: T3, HDAC6 (Homo sapiens, UniProt Q9UBN7); experiment: HDAC6 inhibition, full IC50 measurement (Reaction Biology; fluorogenic p53 peptide RHKK(Ac)AMC)
T3 construct: purchased Reaction Biology Corporation (assay run by the CRO)
T3 sequence (Q9UBN7 1-1215): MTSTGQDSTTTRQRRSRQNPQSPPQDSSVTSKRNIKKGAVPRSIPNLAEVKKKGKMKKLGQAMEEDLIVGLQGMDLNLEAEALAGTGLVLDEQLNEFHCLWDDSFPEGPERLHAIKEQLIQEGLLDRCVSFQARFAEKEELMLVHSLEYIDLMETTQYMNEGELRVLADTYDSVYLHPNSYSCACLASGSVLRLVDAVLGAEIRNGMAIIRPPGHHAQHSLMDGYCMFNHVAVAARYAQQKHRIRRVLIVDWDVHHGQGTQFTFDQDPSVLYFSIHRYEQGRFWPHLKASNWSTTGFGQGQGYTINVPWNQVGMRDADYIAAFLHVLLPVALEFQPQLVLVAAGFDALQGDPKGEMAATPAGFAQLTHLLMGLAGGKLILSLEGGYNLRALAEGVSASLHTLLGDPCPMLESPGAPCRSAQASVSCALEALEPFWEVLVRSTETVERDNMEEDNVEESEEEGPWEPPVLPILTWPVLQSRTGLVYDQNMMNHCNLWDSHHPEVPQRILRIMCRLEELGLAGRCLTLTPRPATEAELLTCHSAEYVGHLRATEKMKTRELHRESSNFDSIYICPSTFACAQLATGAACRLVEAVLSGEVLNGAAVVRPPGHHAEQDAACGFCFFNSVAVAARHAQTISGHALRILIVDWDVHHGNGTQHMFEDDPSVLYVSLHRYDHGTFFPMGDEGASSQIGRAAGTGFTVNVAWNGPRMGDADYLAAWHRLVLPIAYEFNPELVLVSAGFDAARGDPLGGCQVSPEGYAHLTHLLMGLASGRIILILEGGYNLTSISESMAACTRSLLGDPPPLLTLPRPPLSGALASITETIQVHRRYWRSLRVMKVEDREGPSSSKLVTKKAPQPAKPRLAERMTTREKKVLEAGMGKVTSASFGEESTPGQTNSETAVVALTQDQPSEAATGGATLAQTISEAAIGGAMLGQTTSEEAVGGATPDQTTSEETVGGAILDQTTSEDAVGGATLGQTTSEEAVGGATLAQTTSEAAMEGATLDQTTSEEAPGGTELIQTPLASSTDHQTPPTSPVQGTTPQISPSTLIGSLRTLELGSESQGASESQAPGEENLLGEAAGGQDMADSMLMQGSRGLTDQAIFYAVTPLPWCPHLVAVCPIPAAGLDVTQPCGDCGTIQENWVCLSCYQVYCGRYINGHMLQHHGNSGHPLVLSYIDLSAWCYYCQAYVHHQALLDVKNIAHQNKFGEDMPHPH
How it was run: as §1

T1 sequence (O15379 whole entry): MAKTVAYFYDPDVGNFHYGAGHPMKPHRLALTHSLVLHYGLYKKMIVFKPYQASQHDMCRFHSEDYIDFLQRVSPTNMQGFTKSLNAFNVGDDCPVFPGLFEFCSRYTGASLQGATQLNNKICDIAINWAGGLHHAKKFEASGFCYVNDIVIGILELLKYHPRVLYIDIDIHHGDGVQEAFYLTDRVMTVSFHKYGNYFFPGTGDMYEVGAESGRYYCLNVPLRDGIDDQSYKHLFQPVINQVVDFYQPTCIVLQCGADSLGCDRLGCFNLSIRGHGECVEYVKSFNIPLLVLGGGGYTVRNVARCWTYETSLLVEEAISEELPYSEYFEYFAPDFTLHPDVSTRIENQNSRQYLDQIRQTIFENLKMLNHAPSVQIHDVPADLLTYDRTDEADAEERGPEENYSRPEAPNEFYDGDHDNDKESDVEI
T1 sequence (Q9Y618 395-489 partner limits assumed): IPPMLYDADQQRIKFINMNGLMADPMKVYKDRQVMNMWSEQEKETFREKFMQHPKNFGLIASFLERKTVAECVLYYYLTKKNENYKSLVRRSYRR

CC(C)C[C@H]1NC(=O)[C@H](Cc2c[nH]c3ccccc23)NC(=O)[C@H](CCCCCS)NC(=O)[C@@H](Cc2ccc(O)cc2)NC(=O)[C@@H](C(C)C)NC(=O)[C@H](Cc2c[nH]cn2)NC(=O)CNC(=O)CNC(=O)[C@@H](CO)NC1=O [des2.2.0, SHA-Trp-dLeu-dSer-Gly-Gly-His-dVal-dTyr] (HELM PEPTIDE1{G.G.H.[dV].[dY].[O=C([C@H](CCCCCS)N[*:1])[*:2]].W.[dL].[dS]}$PEPTIDE1,PEPTIDE1,1:R1-9:R2$$$V2.0)
HDAC3 activity raw data (signal) (HDAC3; Conc. 1.00E-05 M, t1): 556301
HDAC3 activity raw data (signal) (HDAC3; Conc. 1.00E-05 M, t2): 606764
HDAC3 activity raw data (signal) (HDAC3; Conc. 1.11E-06 M, t1): 913376
HDAC3 activity raw data (signal) (HDAC3; Conc. 1.11E-06 M, t2): 1016072
HDAC3 activity raw data (signal) (HDAC3; Conc. 1.23E-07 M, t1): 993017
HDAC3 activity raw data (signal) (HDAC3; Conc. 1.23E-07 M, t2): 1391457
HDAC3 activity raw data (signal) (HDAC3; Conc. 1.37E-08 M, t1): 1020645
HDAC3 activity raw data (signal) (HDAC3; Conc. 1.37E-08 M, t2): 1085089
HDAC3 activity raw data (signal) (HDAC3; Conc. 1.52E-09 M, t1): 1012899
HDAC3 activity raw data (signal) (HDAC3; Conc. 1.52E-09 M, t2): 1059045
HDAC3 activity raw data (signal) (HDAC3; Conc. 3.33E-06 M, t1): 841514
HDAC3 activity raw data (signal) (HDAC3; Conc. 3.33E-06 M, t2): 795799
HDAC3 activity raw data (signal) (HDAC3; Conc. 3.70E-07 M, t1): 980314
HDAC3 activity raw data (signal) (HDAC3; Conc. 3.70E-07 M, t2): 1161998
HDAC3 activity raw data (signal) (HDAC3; Conc. 4.12E-08 M, t1): 1033280
HDAC3 activity raw data (signal) (HDAC3; Conc. 4.12E-08 M, t2): 1094012
HDAC3 activity raw data (signal) (HDAC3; Conc. 4.57E-09 M, t1): 1032533
HDAC3 activity raw data (signal) (HDAC3; Conc. 4.57E-09 M, t2): 1050723
HDAC3 activity raw data (signal) (HDAC3; Conc. 5.08E-10 M, t1): 965053
HDAC3 activity raw data (signal) (HDAC3; Conc. 5.08E-10 M, t2): 1022182
HDAC8 activity raw data (signal) (HDAC8; peptide conc. 1.00E-05 M, listed as des2.2.0_t1): 365553
HDAC8 activity raw data (signal) (HDAC8; peptide conc. 1.00E-05 M, listed as des2.2.0_t2): 330727
HDAC8 activity raw data (signal) (HDAC8; peptide conc. 1.11E-06 M, listed as des2.2.0_t1): 850929
HDAC8 activity raw data (signal) (HDAC8; peptide conc. 1.11E-06 M, listed as des2.2.0_t2): 824009
HDAC8 activity raw data (signal) (HDAC8; peptide conc. 1.23E-07 M, listed as des2.2.0_t1): 979654
HDAC8 activity raw data (signal) (HDAC8; peptide conc. 1.23E-07 M, listed as des2.2.0_t2): 1006503
HDAC8 activity raw data (signal) (HDAC8; peptide conc. 1.37E-08 M, listed as des2.2.0_t1): 1072008
HDAC8 activity raw data (signal) (HDAC8; peptide conc. 1.37E-08 M, listed as des2.2.0_t2): 1101244
HDAC8 activity raw data (signal) (HDAC8; peptide conc. 1.52E-09 M, listed as des2.2.0_t1): 927307
HDAC8 activity raw data (signal) (HDAC8; peptide conc. 1.52E-09 M, listed as des2.2.0_t2): 984830
HDAC8 activity raw data (signal) (HDAC8; peptide conc. 3.33E-06 M, listed as des2.2.0_t1): 572630
HDAC8 activity raw data (signal) (HDAC8; peptide conc. 3.33E-06 M, listed as des2.2.0_t2): 528648
HDAC8 activity raw data (signal) (HDAC8; peptide conc. 3.70E-07 M, listed as des2.2.0_t1): 865883
HDAC8 activity raw data (signal) (HDAC8; peptide conc. 3.70E-07 M, listed as des2.2.0_t2): 851036
HDAC8 activity raw data (signal) (HDAC8; peptide conc. 4.12E-08 M, listed as des2.2.0_t1): 959123
HDAC8 activity raw data (signal) (HDAC8; peptide conc. 4.12E-08 M, listed as des2.2.0_t2): 1003485
HDAC8 activity raw data (signal) (HDAC8; peptide conc. 4.57E-09 M, listed as des2.2.0_t1): 938538
HDAC8 activity raw data (signal) (HDAC8; peptide conc. 4.57E-09 M, listed as des2.2.0_t2): 927098
HDAC8 activity raw data (signal) (HDAC8; peptide conc. 5.08E-10 M, listed as des2.2.0_t1): 862623
HDAC8 activity raw data (signal) (HDAC8; peptide conc. 5.08E-10 M, listed as des2.2.0_t2): 898356
HDAC6 activity raw data (signal) (HDAC6; Conc. 1.00E-05 M, t1): 16305
HDAC6 activity raw data (signal) (HDAC6; Conc. 1.00E-05 M, t2): 24452
HDAC6 activity raw data (signal) (HDAC6; Conc. 1.11E-06 M, t1): 83235
HDAC6 activity raw data (signal) (HDAC6; Conc. 1.11E-06 M, t2): 80880
HDAC6 activity raw data (signal) (HDAC6; Conc. 1.23E-07 M, t1): 144589
HDAC6 activity raw data (signal) (HDAC6; Conc. 1.23E-07 M, t2): 161069
HDAC6 activity raw data (signal) (HDAC6; Conc. 1.37E-08 M, t1): 141422
HDAC6 activity raw data (signal) (HDAC6; Conc. 1.37E-08 M, t2): 164330
HDAC6 activity raw data (signal) (HDAC6; Conc. 1.52E-09 M, t1): 132716
HDAC6 activity raw data (signal) (HDAC6; Conc. 1.52E-09 M, t2): 164682
HDAC6 activity raw data (signal) (HDAC6; Conc. 3.33E-06 M, t1): 43855
HDAC6 activity raw data (signal) (HDAC6; Conc. 3.33E-06 M, t2): 31435
HDAC6 activity raw data (signal) (HDAC6; Conc. 3.70E-07 M, t1): 128192
HDAC6 activity raw data (signal) (HDAC6; Conc. 3.70E-07 M, t2): 121991
HDAC6 activity raw data (signal) (HDAC6; Conc. 4.12E-08 M, t1): 140481
HDAC6 activity raw data (signal) (HDAC6; Conc. 4.12E-08 M, t2): 177888
HDAC6 activity raw data (signal) (HDAC6; Conc. 4.57E-09 M, t1): 138901
HDAC6 activity raw data (signal) (HDAC6; Conc. 4.57E-09 M, t2): 160834
HDAC6 activity raw data (signal) (HDAC6; Conc. 5.08E-10 M, t1): 128639
HDAC6 activity raw data (signal) (HDAC6; Conc. 5.08E-10 M, t2): 162548
